Measured values reported in patent publication US9149038B2, “4-amino-6-(heterocyclic)picolinates and 6-amino-2-(heterocyclic)pyrimidine-4-carboxylates and their use as herbicides” (Dow AgroSciences LLC, priority 2013, dated 2015).
Read-outs that look alike come from different tables or passages of the source.

What was measured:
[1] = test system: Key Broadleaf Weed and Crop Species; assay: Post-Emergent Test II: postemergent herbicidal activity, visual rating after 14 d (Table 7); assay type: in vivo; conditions: post-emergence, 336 h; for pest or weed control at 35 g/ha: 35 g ai/ha; for pest or weed control at 70 g/ha: 70 g ai/ha; for pest or weed control at 140 g/ha: 140 g ai/ha
Method in brief: (§1)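 Visual scoring at 14 d, 0 (no injury) to 100 (complete kill), relative to untreated plants. Postemergent overhead track-sprayer application, 187 L/ha, at a top rate plus serial ½×–1/16× rates, to plants grown 7–21 d at about 23–29° C day under a 15 h photoperiod, then subirrigated.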

[2] = test system: Key Grass and Sedge Weeds as well as Grass Crops; assay: Post-Emergent Test II: postemergent herbicidal activity, visual rating after 14 d (Table 8); assay type: in vivo; conditions: post-emergence, 336 h; for pest or weed control at 35 g/ha: 35 g ai/ha; for pest or weed control at 70 g/ha: 70 g ai/ha; for pest or weed control at 140 g/ha: 140 g ai/ha
Method in brief: as §1

[3] = ABUTH: velvetleaf (Abutilon theophrasti), read-out: Visual Growth Reduction (%) 14 Days After Application ABUTH
[4] = AMARE: redroot pigweed (Amaranthus retroflexus), read-out: Visual Growth Reduction (%) 14 Days After Application AMARE
[5] = BRSNN: oilseed rape, canola (Brassica napus), read-out: Visual Growth Reduction (%) 14 Days After Application BRSNN
[6] = CHEAL: lambsquarters (Chenopodium album), read-out: Visual Growth Reduction (%) 14 Days After Application CHEAL
[7] = EPHHL: wild poinsettia (Euphorbia heterophylla), read-out: Visual Growth Reduction (%) 14 Days After Application EPHHL
[8] = HELAN: sunflower (Helianthus annuus), read-out: Visual Growth Reduction (%) 14 Days After Application HELAN
[9] = barnyardgrass (Echinochloa crus-galli), read-out: Visual Growth Reduction (%) 14 Days After Application, ECHCG
[10] = giant foxtail (Setaria faberi), read-out: Visual Growth Reduction (%) 14 Days After Application, SETFA
[11] = maize, corn (Zea mays), read-out: Visual Growth Reduction (%) 14 Days After Application, ZEAMX
[12] = rice (Oryza sativa), read-out: Visual Growth Reduction (%) 14 Days After Application, ORYSA
[13] = wheat, spring (Triticum aestivum), read-out: Visual Growth Reduction (%) 14 Days After Application, TRZAS
[14] = yellow nutsedge (Cyperus esculentus), read-out: Visual Growth Reduction (%) 14 Days After Application, CYPES

SMILES | pest or weed control at 35 g/ha [1, 3] | pest or weed control at 70 g/ha [1, 3] | pest or weed control at 140 g/ha [1, 3] | pest or weed control at 35 g/ha [1, 4] | pest or weed control at 70 g/ha [1, 4] | pest or weed control at 140 g/ha [1, 4] | pest or weed control at 35 g/ha [1, 5] | pest or weed control at 70 g/ha [1, 5] | pest or weed control at 140 g/ha [1, 5] | pest or weed control at 35 g/ha [1, 6] | pest or weed control at 70 g/ha [1, 6] | pest or weed control at 140 g/ha [1, 6] | pest or weed control at 35 g/ha [1, 7] | pest or weed control at 70 g/ha [1, 7] | pest or weed control at 140 g/ha [1, 7] | pest or weed control at 35 g/ha [1, 8] | pest or weed control at 70 g/ha [1, 8] | pest or weed control at 140 g/ha [1, 8] | pest or weed control at 35 g/ha [2, 9] | pest or weed control at 70 g/ha [2, 9] | further results
COC(=O)c1nc(-c2ccc(F)c3c2OCO3)nc(N)c1OC [Compound 97] | 0 to 29% | 0 to 29% | 0 to 29% | 0 to 29% | 0 to 29% | 0 to 29% | 0 to 29% | 0 to 29% | 0 to 29% | 60 to 74% | 85 to 94% | 60 to 74% | 0 to 29% | 0 to 29% | 0 to 29% | 60 to 74% | 75 to 84% | 85 to 94% | 0 to 29% | 0 to 29% | pest or weed control at 140 g/ha [2, 9]: 0 to 29%; pest or weed control at 35 g/ha [2, 10]: 0 to 29%; pest or weed control at 70 g/ha [2, 10]: 0 to 29%; pest or weed control at 140 g/ha [2, 10]: 0 to 29%; pest or weed control at 35 g/ha [2, 11]: 0 to 29%; pest or weed control at 70 g/ha [2, 11]: 0 to 29%; pest or weed control at 140 g/ha [2, 11]: 0 to 29%; pest or weed control at 35 g/ha [2, 12]: 0 to 29%; pest or weed control at 70 g/ha [2, 12]: 0 to 29%; pest or weed control at 140 g/ha [2, 12]: 0 to 29%; pest or weed control at 35 g/ha [2, 13]: 0 to 29%; pest or weed control at 70 g/ha [2, 13]: 0 to 29%; pest or weed control at 140 g/ha [2, 13]: 0 to 29%; pest or weed control at 35 g/ha [2, 14]: 0 to 29%; pest or weed control at 70 g/ha [2, 14]: 0 to 29%; pest or weed control at 140 g/ha [2, 14]: 0 to 29%
COC(=O)c1nc(-c2ccc(F)c3c2OCO3)cc(N)c1Cl [Compound 92] | 60 to 74% | 85 to 94% | 85 to 94% | 95 to 100% | 95 to 100% | 95 to 100% | 30 to 44% | 60 to 74% | 75 to 84% | 95 to 100% | 85 to 94% | 95 to 100% | 0 to 29% | 0 to 29% | 0 to 29% | 60 to 74% | 60 to 74% | 75 to 84% | 0 to 29% | 0 to 29% | pest or weed control at 140 g/ha [2, 9]: 0 to 29%; pest or weed control at 35 g/ha [2, 10]: 0 to 29%; pest or weed control at 70 g/ha [2, 10]: 0 to 29%; pest or weed control at 140 g/ha [2, 10]: 0 to 29%; pest or weed control at 35 g/ha [2, 11]: 0 to 29%; pest or weed control at 70 g/ha [2, 11]: 0 to 29%; pest or weed control at 140 g/ha [2, 11]: 0 to 29%; pest or weed control at 35 g/ha [2, 12]: 0 to 29%; pest or weed control at 70 g/ha [2, 12]: 0 to 29%; pest or weed control at 140 g/ha [2, 12]: 0 to 29%; pest or weed control at 35 g/ha [2, 13]: 0 to 29%; pest or weed control at 70 g/ha [2, 13]: 0 to 29%; pest or weed control at 140 g/ha [2, 13]: 0 to 29%; pest or weed control at 35 g/ha [2, 14]: 0 to 29%; pest or weed control at 70 g/ha [2, 14]: 0 to 29%; pest or weed control at 140 g/ha [2, 14]: 0 to 29%
